The text below walks through data of patent publication US5420128A, “Pyrimidine derivatives, method of manufacturing the same, and androgen inhibitor” (Otsuka Pharmaceutical Co., Ltd., priority 1990, dated 1995).

Bounds are passed on as bounds.

This test has as its target T1, rat prostate androgen receptor (Rattus norvegicus, UniProt P15207).
T1 construct: the supernatant was obtained as cytoplasm fraction; from tissue; host or cells: cytosol (105000×g supernatant) of rat ventral prostate, 24 hours after castration
T1 sequence (P15207 1-902): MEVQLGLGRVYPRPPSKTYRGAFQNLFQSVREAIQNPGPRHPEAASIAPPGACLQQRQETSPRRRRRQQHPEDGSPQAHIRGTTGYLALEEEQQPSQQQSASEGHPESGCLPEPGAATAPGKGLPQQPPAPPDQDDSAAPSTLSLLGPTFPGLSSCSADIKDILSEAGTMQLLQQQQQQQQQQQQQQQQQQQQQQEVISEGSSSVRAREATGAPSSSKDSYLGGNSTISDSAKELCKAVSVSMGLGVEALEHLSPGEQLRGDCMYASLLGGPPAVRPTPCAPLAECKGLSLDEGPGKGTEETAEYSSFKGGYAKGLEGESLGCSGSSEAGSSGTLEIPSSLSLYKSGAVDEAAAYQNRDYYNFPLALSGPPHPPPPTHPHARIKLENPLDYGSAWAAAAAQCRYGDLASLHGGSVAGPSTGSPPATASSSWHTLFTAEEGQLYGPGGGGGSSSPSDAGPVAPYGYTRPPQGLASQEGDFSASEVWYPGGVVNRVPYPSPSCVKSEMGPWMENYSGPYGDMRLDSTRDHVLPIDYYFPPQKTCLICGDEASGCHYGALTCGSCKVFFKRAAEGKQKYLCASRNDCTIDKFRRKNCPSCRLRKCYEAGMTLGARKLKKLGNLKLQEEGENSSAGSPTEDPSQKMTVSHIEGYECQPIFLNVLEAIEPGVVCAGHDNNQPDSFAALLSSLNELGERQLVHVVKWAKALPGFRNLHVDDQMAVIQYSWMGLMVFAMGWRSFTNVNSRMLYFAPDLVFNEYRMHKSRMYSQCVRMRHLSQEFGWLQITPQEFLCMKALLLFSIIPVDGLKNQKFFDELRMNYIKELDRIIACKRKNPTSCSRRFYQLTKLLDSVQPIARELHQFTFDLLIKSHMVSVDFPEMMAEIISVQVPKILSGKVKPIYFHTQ
Kind of test: inhibitory activity on binding of ^3 H-mibolerone on rat prostate androgen receptor. The following applies: ^3 H-mibolerone 1 nM, triamcinolone acetonide 5 μM, rat ventral prostate cytosol, 20 hours at 0° C.; read-out: Inhibitory activity on mibolerone specific binding [IC50 (M)].
Experimental: B. Measurement of inhibitory activity on binding of ^3 H-mibolerone on rat prostate androgen receptor
(1) Preparation of cytosol from rat prostate
The rat was sacrificed 24 hours after castration, and the ventral lobe of prostate was removed, and was gently homogenized, in ice-cooling water bath, at first by using Polytron and then using Potter type homogenizer, in three-fold amount of buffer solution A (1.5 mM EDTA, 2 mM dithiothreitol, 10 mM molybdate sodium, 10 % by volume of glycerol, 10 mM NaF, 25 mM phosphate sodium, pH 7.2). The obtained homogenate was filtrated through double gauze, and centrifuged at 105000×g for 60 minutes at 4° C., and the supernatant was obtained as cytoplasm fraction.
(2) Measurement of specific binding of ^3 H-mibolerone on prostate cytoplasm androgen receptor
To the cytoplasm fraction obtained in (1), ^3 H-mibolerone (87.0 Ci/mmol) was added, so that a final concentration is adjusted to 1 nM, and at the same time, in order to inhibit binding of ^3 H-mibolerone to progestin receptor, triamsinolone acetonide was added to a final concentration of 5 μM, and the final volume was adjusted to 0.4 ml with buffer solution A, and the reaction mixture was incubated for 20 hours at 0° C. After incubation, 0.5 ml of 60% hydroxylapatite slurry (washed and equilibrate with a buffer solution B: 10 mM NaH2 P04, 20 mM tris-hydrochloric acid, pH 7.2) was added, and incubated for 10 minutes at 0° C., the solution was transferred onto a glass fiber filter, and washed five times with 5 ml portions of buffer solution B containing 0.1% (weight/volume) of Triton X-100, to remove free ^3 H-mibolerone. This glass fiber was transferred into vial, and 10 ml of aquasol-2 was added, and the radioactivity was measured, and the total binding amount of ^3 H-mibolerone on prostate cytoplasm androgen receptor was determined.
The nonspecific binding amount was determined similarly by adding an unlabeled 5α-DHT in the reaction solution to a final concentration of 1 μM. The difference between the total binding amount and nonspecific binding amount was determined as the specific binding amount on the androgen receptor.
(3) Inhibitory activity of sample compounds on ^3 H-mibolerone specific binding
The compounds obtained in the experiments were added simultaneously with ^3 H-mibolerone at different concentrations to incubate same as in (2), and the specific binding amount of 3H-mibolerone on androgen receptor was determined. Comparing this value with the value obtained in (2), the IC50 value of inhibitory activity of the compounds on ^3 H-mibolerone specific binding was determined.
On to `Oc1ccccc1Cc1cnc2c(-c3ccc(Sc4ccccc4)cc3)cnn2c1O` [Example 61, 7-Hydroxy-6-(2-hydroxyphenylmethyl)-3-(4-phenylthiophenyl)pyrazolo[1,5-a]pyrimidine], for which the IC50 was determined as 1.6e-07 M.

Regarding `Oc1c(F)cnc2c(-c3ccc(Sc4ccccc4)cc3)cnn12` [Example 22], the IC50 amounted to 5.2e-08 M.

With `Oc1c(C2CCCCC2)cnc2c(-c3ccc(Sc4ccccc4)cc3)cnn12` [Example 27, 7-Hydroxy-6-cyclohexyl-3-(4-phenylthiophenyl)pyrazolo[1,5-a]pyrimidine], the IC50 amounted to 1.3e-07 M.

Turning to `COc1ccc(-c2cnc3c(-c4ccc(Sc5ccccc5)cc4)cnn3c2O)cc1Br` [Example 73, 6-(3-bromo-4-methoxyphenyl)-7-hydroxy-3-(4-phenylthiophenyl)pyrazolo[1,5-a]pyrimidine], the IC50 is above 5e-06 M.

Take `Oc1ccc(-c2cnc3c(-c4ccc(Sc5ccccc5)cc4)cnn3c2O)cc1` [Example 66, 7-Hydroxy-6-(4-hydroxyphenyl)-3-(4-phenylthiophenyl)pyrazolo[1,5-a]pyrimidine]: the IC50 was determined as 1.6e-07 M.

For the compound `O=C(Nc1cc(Cl)c(Cl)c(Cl)c1)c1cnc2c(-c3ccc(Sc4ccccc4)cc3)cnn2c1O` [Example 45, 7-Hydroxy-3-(4-phenylthiophenyl)-6-(N-3,4,5-trichlorophenyl)carbamoylpyrazolo[1,5-a]pyrimidine], the IC50 worked out at 4e-07 M.

As to `Oc1ccccc1-c1cnc2c(-c3ccc(Sc4ccccc4)cc3)cnn2c1O` [Example 64, 7-Hydroxy-6-(2-hydroxyphenyl)-3-(4-phenylthiophenyl)pyrazolo[1,5-a]pyrimidine], the IC50 was 7.4e-07 M.

Regarding `Oc1cccc(-c2cnc3c(-c4ccc(Sc5ccccc5)cc4)cnn3c2O)c1` [Example 65, 7-Hydroxy-6-(3-hydroxyphenyl)-3-(4-phenylthiophenyl)pyrazolo[1,5-a]pyrimidine], the IC50 was determined as 1.4e-07 M.

For the compound `O=C(c1ccccc1)c1cnc2c(-c3ccc(Sc4ccccc4)cc3)cnn2c1O` [Example 68, 7-Hydroxy-6-benzoyl-3-(4-phenylthiophenyl)pyrazolo[1,5-a]pyrimidine], the IC50 was determined as 1.3e-06 M.

As to `COc1cc(-c2cnn3c(O)ccnc23)ccc1Sc1ccccc1` [Example 15, 7-Hydroxy-3-(3-methoxy-4-penylthiophenyl)pyrazolo[1,5-a]pyrimidine], the IC50 is 1.5e-07 M.

Turning to `Oc1cc(C2CC2)nc2c(-c3ccc(Sc4ccccc4)cc3)cnn12` [Example 8, 7-Hydroxy-5-cyclopropyl-3-(4-phenylthiophenyl)pyrazolo[1,5-a]pyrimidine], the IC50 worked out at 1.7e-06 M.

Consider `Oc1c(-c2cccc(F)c2)cnc2c(-c3ccc(Sc4ccccc4)cc3)cnn12` [Example 56, 7-Hydroxy-6-(3-fluorophepyl)-3-(4-phenylthiophenyl)pyrazolo[1,5-a]pyrimidine], for which the IC50 came out at 1.2e-07 M.

Turning to `Oc1c(Br)cnc2c(-c3ccc(Sc4ccccc4)cc3)cnn12` [Example 35, 7-Hydroxy-6-bromo-3-(4-phenylthiophenyl)pyrazolo[1,5a]pyrimidine], the half-inhibitory concentration (IC50) came to 8.8e-08 M.

As to `CCOC(=O)Cc1cnc2c(-c3ccc(Sc4ccccc4)cc3)cnn2c1O` [Example 33, 7-Hydroxy-6-ethoxycarbonylmethyl-3-(4-phenylthiophenyl)pyrazolo[1,5-a]pyrimidine], the IC50 amounted to 2.8e-07 M.

Take `O=C(c1cnc2c(-c3ccc(Sc4ccccc4)cc3)cnn2c1O)C(F)(F)F` [Example 69, 7-Hydroxy-6-trifluoroacetyl-3-(4-phenylthiophenyl)pyrazolo[1,5-a]pyrimidine]: the IC50 worked out at 8.8e-07 M.

Turning to `COc1cc(-c2cnn3c(O)c(C(N)=O)cnc23)ccc1Sc1ccccc1` [Example 44, 6-Carbamoyl-7-hydroxy-3-(3-methoxy-4-phenylthiophenyl)pyrazolo[1,5-a]pyrimidine], the half-maximal inhibitory concentration (IC50) is 7.7e-08 M.

On to `Oc1c2c(nc3c(-c4ccc(Sc5ccccc5)cc4)cnn13)CCC2` [Example 11, 5H-6,7-Dihydro-8-hydroxy-3-(4-phenylthiophenyl)cyclopenta[d]pyrazolo[1,5-a]pyrimidine], for which the IC50 stood at 4.2e-07 M.

For the compound `Cc1nn2c(O)ccnc2c1-c1ccc(Sc2ccccc2)cc1` [Example 18, 7-Hydroxy-2-methyl-3-(4-phenylthiophenyl)pyrazolo[1,5-a]pyrimidine], the IC50 came out at 1.2e-06 M.

Consider `CC(=O)OCCc1cnc2c(-c3ccc(Sc4ccccc4)cc3)cnn2c1O` [Example 59, 6-(2-Acetoxyethyl)-7-hydroxy-3-(4-phenylthiophenyl)pyrazolo[1,5-a]pyrimidine], for which the IC50 came to 1.65e-07 M.

As to `Oc1c2c(nc3c(-c4ccc(Sc5ccccc5)cc4)cnn13)CCCC2` [Example 12, 9-Hydroxy-3-(4-phenylthiophenyl)-5,6,7,8-tetrahydropyrazolo[5,1-b]quinazoline], the IC50 is above 5e-06 M.

`c1ccc(Sc2ccc(-c3cnn4cccnc34)cc2)cc1` [Example 49, 3-(4-phenylthiophenyl)pyrazolo[1,5-a]pyrimidine]: the IC50 is above 5e-06 M.

Turning to `COc1cccc(-c2cnc3c(-c4ccc(Sc5ccccc5)cc4)cnn3c2O)c1` [Example 54, 7-Hydroxy-6-(3-methoxyphenyl)-3-(4-phenylthiophenyl)pyrazolo[1,5-a]pyrimidine], the IC50 turned out to be 7.6e-07 M.

`Cc1cnc2c(-c3ccc(Sc4ccccc4)cc3)cnn2c1O` [Example 24, 7-Hydroxy-6-methyl-3-(4-phenylthiophenyl)pyrazolo[1,5-a]pyrimidine]: the IC50 was 6.4e-08 M.

Regarding `CCc1cc(O)n2ncc(-c3ccc(Sc4ccccc4)cc3)c2n1` [Example 6, 7-Hydroxy-5-ethyl-3-(4-phenylthiophenyl)pyrazolo[1,5-a]pyrimidine], the IC50 is 9e-07 M.

As to `CC(C)c1cnc2c(-c3ccc(Sc4ccccc4)cc3)cnn2c1O` [Example 26, 7-Hydroxy-6-isopropyl-3-(4-phenylthiophenyl)pyrazolo[1,5-a]pyrimidine], the IC50 worked out at 1.8e-07 M.

With `Oc1cc(-c2ccccc2)nc2c(-c3ccc(Sc4ccccc4)cc3)cnn12` [Example 10, 7-Hydroxy-5-phenyl-3-(4-phenylthiophenyl)pyrazolo[1,5-a]pyrimidine], the IC50 is above 5e-06 M.

Regarding `Cc1nc2c(-c3ccc(Sc4ccccc4)cc3)cnn2c(O)c1Cl` [Example 37, 7-hydroxy-6-chloro-5-methyl-3-(4-phenylthiophenyl)pyrazolo[1,5-a]pyrimidine], the IC50 was 5.8e-07 M.

`Oc1cccc(Cc2cnc3c(-c4ccc(Sc5ccccc5)cc4)cnn3c2O)c1` [Example 62, 7-Hydroxy-6-(3-hydroxyphenylmethyl)-3-(4-phenylthiophenyl)pyrazolo[1,5-a]pyrimidine]: the half-inhibitory concentration (IC50) was 1.2e-07 M.

Take `N#Cc1cnc2c(-c3ccc(Sc4ccccc4)cc3)cnn2c1O` [Example 47, 7-Hydroxy-6-cyano-3,(4-phenylthiophenyl)pyrazolo[1,5-a]pyrimidine]: the IC50 worked out at 5e-08 M.

Take `O=C(O)c1cnc2c(-c3ccc(Sc4ccccc4)cc3)cnn2c1O` [Example 38, 7-Hydroxy-6-carboxy-3-(4-phenylthiophenyl)pyrazolo[1,5-a]pyrimidine]: the IC50 is 5.8e-08 M.

Take `Oc1c(-c2ccc(F)cc2)cnc2c(-c3ccc(Sc4ccccc4)cc3)cnn12` [Example 55, 7-Hydroxy, 6-(4-fluorophenyl)-3-(4-phenylthiophenyl)pyrazolo[1,5-a]pyrimidine]: the IC50 was determined as 6.6e-08 M.

As for `COCc1nn2c(O)ccnc2c1-c1ccc(Sc2ccccc2)cc1` [Example 19, 7-Hydroxy-2-methoxymethyl-3-(4-phenylthiophenyl)pyrazolo[1,5-a]pyrimidine], the IC50 was above 5e-06 M.

In the case of “7-Hydroxy-6-ethoxycarbonylmethyl-3-(4-phenylthiophenyl)pyrazolo[1,5-a]pyrimidine [Example 34]”, the IC50 came to 2.9e-07 M.

As for `Oc1c(C(O)C(F)(F)F)cnc2c(-c3ccc(Sc4ccccc4)cc3)cnn12` (stereo not shown) [Example 72, 7-Hydroxy-6-(1-hydroxy-2,2,2-trifluoroethyl)-3-(4-phenylthiophenyl)pyrazolo[1,5-a]pyrimidine], the IC50 worked out at 1.6e-07 M.

Consider `Oc1c(-c2ccccc2)cnc2c(-c3ccc(Sc4ccccc4)cc3)cnn12` [Example 23, 7-Hydroxy-6-phenyl-3-(4-phenylthiophenyl)pyrazolo[1,5-a]pyrimidine], for which the IC50 came to 5.8e-08 M.

Turning to `CCc1cnc2c(-c3ccc(Sc4ccccc4)cc3)cnn2c1O` [Example 25, 7-Hydroxy-6-ethyl-3-(4-phenylthiophenyl)pyrazolo[1,5-a]pyrimidine], the IC50 amounted to 1.6e-07 M.

With `Oc1c(CCc2ccccc2)cnc2c(-c3ccc(Sc4ccccc4)cc3)cnn12` [Example 28, 7-Hydroxy-6-phenethyl-3-(4-phenylthiophenyl)pyrazolo[1,5-a]pyrimidine], the IC50 was above 5e-06 M.
